Data set [1] in a line: MTT assay for cell viability. The settings on record: mouse, N9 microglial cells, % Cell Viability, 24 h, MTT, mean ± S.E.M.; for viability at 24 h, 25 µM: 25 μM compound; for viability at 24 h, 50 µM: 50 μM compound. For orientation: Tetrazolium dyes change colour on reduction, which living cells bring about.
Method: The N9 microglial cell line was obtained from China Cell Line Bank. The cells were grown at 37 °C in IMDM supplemented with 10% heat-inactivated FBS under a humidified atmosphere of 5% CO2. In this experiment, cells were allowed to acclimate for 24 h before treatments.
Cell viability was evaluated by the MTT reduction assay [36]. Cells were seeded in 96-well plates at a density of 2 × 10^4 cells/well and allowed to grow for 24 h before treatments. Thereafter, 100 μL medium containing various concentrations (0–50 μM) of compounds were added and incubated for another 24 h. MTT was dissolved in DD water (5 mg/mL) and 10 μL were added to each well. After 4 h, the medium was removed and 100 μL DMSO were filled in each well. The optical density was measured at 490 nm on a Flexstation 3 (Molecular Devices, Silicon Valley, CA, USA).
Data set [2] relates to LPS-induced NO production in N9 microglial cells. Kind of data set: LPS-induced NO production (Griess assay). The data set is classed as cell-based, mouse. The note with it: mean ± S.E.M.; for Nitrite: control 4.60, LPS group 31.81 μM; for inhibition at 25 µM / inhibition at 50 µM: Mus musculus. Here is the method: Figure 2 Inhibitory effects of TBIII (A) and t-HL (B) in LPS-stimulated N9 microglial cells. Cells were pretreated with different concentrations of TBIII and t-HL 1 h prior to the addition of LPS (100 ng/mL) and were further incubated for 24 h. NO production was determined by using the Griess reagent. IC50 values and curve fitting were determined using Graphpad Prism (GraphPad, Avenida, CA, USA).
Accumulation of nitrite, a metabolite of NO in the culture media, was measured by Griess assay as previously reported. Briefly, cells were stimulated with 100 ng/mL of LPS for 24 h in the presence of the test compounds (0–50 μM).
(The Griess reaction detects nitrite, a stable product of nitric oxide.)

Setting [3] is: 25 μM compound, LPS 100 ng/mL, 24 h.
The mark [4] stands for this setting: 50 μM compound, LPS 100 ng/mL, 24 h.
Where [5] appears, read: N9, 24 h, 25 μM compound, LPS 100 ng/mL, 24 h, read-out: % Inhibition of NO Production.
The mark [6] stands for this setting: N9, 24 h, 50 μM compound, LPS 100 ng/mL, 24 h, read-out: % Inhibition of NO Production.
Where [7] appears, read: 50 μM compound, LPS 100 ng/mL, 24 h, 50 µM.
The mark [8] stands for this setting: N9, 24 h, read-out: % Inhibition of NO Production, 25 μM compound, LPS 100 ng/mL, 24 h.
Where [9] appears, read: N9, 24 h, read-out: % Inhibition of NO Production, 50 μM compound, LPS 100 ng/mL, 24 h.
[10] abbreviates: N9, 25 μM compound, LPS 100 ng/mL, 24 h, read-out: % Inhibition of NO Production.
The mark [11] stands for this setting: N9, 50 μM compound, LPS 100 ng/mL, 24 h, read-out: % Inhibition of NO Production.

Structures are written as SMILES. Where two headings read alike, the source gives them in different places. A value given as a limit tells only on which side of the number the result lay.

`C=CCOC1O[C@H](CO)[C@@H](O)[C@H](O)[C@H]1O` (stereo in doubt) [Compound 26, α-D-Glucose monoallyl ether]: in data set [1], the viability (as a rule, a read-out of living cells in per cent, often relative to untreated cells) at 24 h, 25 µM worked out at 107.2 ± 0.63% and the viability at 24 h, 50 µM stood at 105 ± 16.1%. The Nitrite in data set [2] (setting [3]) is 29.57 ± 0.71 µM. The Nitrite in data set [2] (setting [4]) came out at 22.60 ± 2.19 µM. The inhibition at 25 µM in data set [2] (setting [5]) was found to be 7.13 ± 2.23%. For the same compound, the inhibition at 50 µM in data set [2] (setting [6]) was 29 ± 8.43%.

As for `COc1cc(O)c(C(=O)c2ccc(O)cc2)c(O)c1` [Compound 1, 2,6,4′-trihydroxy-4-methoxybenzophenone], the viability at 24 h, 25 µM in data set [1] was 98.7 ± 8.27%. For the same compound, the viability at 24 h, 50 µM in data set [1] stood at 97.5 ± 1.85%. Besides, the Nitrite in data set [2] (setting [3]) was 26.78 ± 1.27 µM; in data set [2] (setting [4]), 19.29 ± 0.10 µM. In addition, the inhibition at 25 µM in data set [2] (setting [5]) was found to be 15.3 ± 9.4%. The inhibition at 50 µM in data set [2] (setting [6]) is 41.7 ± 3.9%.

With `COc1ccc(C(=O)c2ccc(O)cc2)c(OC2OC(CO)C(O)C(O)C2O)c1O` (centres unmarked) [Compound 2, Zimoside A], in data set [1], the viability at 24 h, 25 µM was 97.2 ± 3.27% and the viability at 24 h, 50 µM was 94.6 ± 5.47%. In addition, the Nitrite in data set [2] (setting [3]) was found to be 26.64 ± 1.13 µM. The same compound returned a Nitrite in data set [2] (setting [4]) of 21.41 ± 0.92 µM. In addition, the inhibition at 25 µM in data set [2] (setting [5]) turned out to be 16.3 ± 3.55%. In addition, the inhibition at 50 µM in data set [2] (setting [6]) came to 32.8 ± 2.88%.

Consider `O=C(c1ccc(O)cc1)c1c(O)cc(O)cc1O` [Compound 3, Iriflophene], for which the viability at 24 h, 25 µM in data set [1] is 107 ± 3.62%. Further, the viability at 24 h, 50 µM in data set [1] was determined as 113 ± 5.32%. In addition, the figures for the Nitrite in data set [2] (setting [3]) and in data set [2] (setting [4]) were 26.06 ± 1.24 µM and 20.41 ± 0.38 µM, respectively. Besides, the inhibition at 25 µM in data set [2] (setting [5]) was 18.1 ± 3.88%. The inhibition at 50 µM in data set [2] (setting [6]) was 35.9 ± 1.2%.

Consider `CC(C)CCC1(O)OC2C(O)C3C4CCC5CC(OC6OC(CO)C(O)C(O)C6OC6OC(CO)C(O)C(O)C6O)CCC5(C)C4CCC3(C)C2C1C` (centres unmarked) [Compound 4, Anemarrhenasaponin II], for which, in the data set with N9 microglial cells, the “cytotoxicity against N9 microglial cells (in words)” value is reported as “potent cytotoxicity”. Besides, the “cell viability reduced to” value with N9 microglial cells (mouse, 24 h) is not above 60%. In addition, the “% Cell Viability” value in the data set on N9 microglial cells (mouse, 24 h, 25 µM) is 63.92 ± 5.98 %; in the data set on N9 microglial cells (mouse, 24 h, 50 µM), 8.57 ± 0.11 %. In addition, the Nitrite in data set [2] (setting [3]) amounted to 9.52 ± 0.84 µM; in data set [2] (setting [4]), 3.80 ± 0.53 µM. Moreover, the “% Inhibition of NO Production” value in data set [2] (setting [7]) turned out to be 87.98 ± 2.99 %.

`CC(C)CCC1(O)OC2C(O)C3C4CCC5CC(OC6OC(CO)C(O)C(O)C6OC6OC(CO)C(O)C(O)C6O)CCC5(C)C4CCC3(C)C2C1C` (centres unmarked) [Compound 5, Anemarrhenasaponin I]: the “cytotoxicity against N9 microglial cells (in words)” value in the data set on N9 microglial cells was “not”. Further, the “% Cell Viability” value with N9 microglial cells (mouse, 24 h, 25 µM) is on record as 110.42 ± 4.67%; with N9 microglial cells (mouse, 24 h, 50 µM), 115.47 ± 6.83%. The values for the Nitrite in data set [2] (setting [3]) and in data set [2] (setting [4]) were 29.82 ± 0.24 µM and 19.14 ± 0.59 µM, respectively. In addition, the “% Inhibition of NO Production” value in data set [2] (25 μM compound, LPS 100 ng/mL, 24 h, 25 µM) turned out to be 6.36 ± 0.76 %; in data set [2] (setting [7]), 39.90 ± 1.85 %.

`CC(CCC1(O)OC2CC3C4CCC5CC(OC6OC(CO)C(O)C(O)C6OC6OC(CO)C(O)C(O)C6O)CCC5(C)C4CCC3(C)C2C1C)COC1OC(CO)C(O)C(O)C1O` (centres unmarked) [Compound 6, Anemarnoside B]: in data set [1], the viability at 24 h, 25 µM stood at 115 ± 5.52% and the viability at 24 h, 50 µM was 104 ± 16.5%. This compound came in with a Nitrite in data set [2] (setting [3]) of 40.89 ± 2.04 µM. In data set [2] (setting [4]), this compound returned a Nitrite of 26.38 ± 2.63 µM. Further, in data set [2] (setting [8]), the inhibition at 25 µM is -28.3 ± 6.4%. Also, the inhibition at 50 µM in data set [2] (setting [9]) stood at 17.2 ± 8.26%.

In the case of `CC(CCC1(O)OC2CC3C4CCC5CC(OC6OC(CO)C(OC7OC(CO)C(O)C(OC8OCC(O)C(O)C8O)C7OC7OC(CO)C(O)C(O)C7O)C(O)C6O)C(O)CC5(C)C4CCC3(C)C2C1C)COC1OC(CO)C(O)C(O)C1O` (centres unmarked) [Compound 7, Hostaplantagineoside C], in data set [1], the viability at 24 h, 25 µM came to 84.9 ± 1.82% and the viability at 24 h, 50 µM is 79.7 ± 6.03%. The Nitrite in data set [2] (setting [3]) was determined as 32.76 ± 0.85 µM. The Nitrite in data set [2] (setting [4]) came to 23.52 ± 0.37 µM. The inhibition at 25 µM in data set [2] (setting [10]) is -3.57 ± 8.75%. The inhibition at 50 µM in data set [2] (setting [11]) came to 25.8 ± 2.4%.

For `C[C@@H]1O[C@@H](O[C@H]2[C@H](OC(=O)[C@]34CCC(C)(C)C[C@H]3C3=CC[C@@H]5[C@@]6(C)C[C@H](O)[C@H](O[C@@H]7O[C@H](CO)[C@@H](O)[C@H](O[C@@H]8O[C@H](CO)[C@@H](O)[C@H](O)[C@H]8O)[C@H]7O)C(CO)(CO)[C@@H]6CC[C@@]5(C)[C@]3(C)C[C@H]4O)OC[C@H](O)[C@@H]2O)[C@H](O)[C@H](O)[C@H]1O[C@@H]1OC[C@@H](O)[C@H](O[C@@H]2OC[C@](O)(CO)[C@H]2O)[C@H]1O` [Compound 16, Platycodin D2], in data set [1], the viability at 24 h, 25 µM came out at 114 ± 4.62% and the viability at 24 h, 50 µM came to 101 ± 1.83%. In data set [2] (setting [3]), this compound gave a Nitrite of 33.68 ± 1.44 µM. For the same compound, the Nitrite in data set [2] (setting [4]) was 24.94 ± 0.45 µM. Moreover, the inhibition at 25 µM in data set [2] (setting [5]) was -5.78 ± 4.51%. Also, the inhibition at 50 µM in data set [2] (setting [6]) amounted to 21.7 ± 1.4%.

Take `C[C@@H]1O[C@@H](O[C@H]2[C@H](OC(=O)[C@]34CCC(C)(C)C[C@H]3C3=CC[C@@H]5[C@@]6(C)C[C@H](O)[C@H](O[C@@H]7O[C@H](CO)[C@@H](O)[C@H](O[C@@H]8O[C@H](CO)[C@@H](O)[C@H](O)[C@H]8O)[C@H]7O)[C@@](C)(CO)[C@@H]6CC[C@@]5(C)[C@]3(C)C[C@H]4O)OC[C@H](O)[C@@H]2O)[C@H](O)[C@H](O)[C@H]1O[C@@H]1OC[C@@H](O)[C@H](O[C@@H]2OC[C@](O)(CO)[C@H]2O)[C@H]1O` [Compound 17, Polygalacin D2]: in data set [1], the viability at 24 h, 25 µM is 97.5 ± 1.83% and the viability at 24 h, 50 µM is 88 ± 8.92%. The compound also showed a Nitrite in data set [2] (setting [3]) of 31.14 ± 0.78 µM. For the same compound, the Nitrite in data set [2] (setting [4]) came out at 26.21 ± 0.82 µM. Besides, in data set [2] (setting [5]), the inhibition at 25 µM stood at 2.25 ± 2.46%. Also, the inhibition at 50 µM in data set [2] (setting [6]) was found to be 17.7 ± 3.14%.

On to `O=c1cc(-c2ccc(O)cc2)oc2cc(O)c([C@@H]3O[C@H](CO)[C@@H](O)[C@H](O)[C@H]3O)c(O)c12` [Compound 20, Isovitexin], for which, in data set [1], the viability at 24 h, 25 µM came out at 135 ± 11.8% and the viability at 24 h, 50 µM was found to be 95.7 ± 2.75%. In addition, the Nitrite in data set [2] (setting [3]) stood at 28.39 ± 0.07 µM. Also, the Nitrite in data set [2] (setting [4]) turned out to be 22.82 ± 0.27 µM. Further, the inhibition at 25 µM in data set [2] (setting [5]) was determined as 10.2 ± 4.73%. Moreover, in data set [2] (setting [6]), the inhibition at 50 µM stood at 29.8 ± 0.6%.

For the compound `O=c1cc(-c2ccc(O)cc2)oc2c([C@@H]3O[C@H](CO)[C@@H](O)[C@H](O)[C@H]3O)c(O)cc(O)c12` [Compound 21, Vitexin], in data set [1], the viability at 24 h, 25 µM stood at 90.5 ± 2.51% and the viability at 24 h, 50 µM was found to be 81.8 ± 4.38%. For the same compound, in data set [2] (setting [3]), the Nitrite stood at 28.88 ± 1.38 µM. In addition, the Nitrite in data set [2] (setting [4]) was 17.81 ± 1.13 µM. In data set [2] (setting [10]), the inhibition at 25 µM turned out to be 9.39 ± 4.33%. In data set [2] (setting [11]), the inhibition at 50 µM worked out at 44.1 ± 3.56%.

In the case of `N[C@@H](Cc1c[nH]c2ccccc12)C(=O)O` [Compound 24, Tryptophan], in data set [1], the viability at 24 h, 25 µM is 105 ± 6.13%. Also, the viability at 24 h, 50 µM in data set [1] worked out at 92.4 ± 8.71%. Further, the values for the Nitrite in data set [2] (setting [3]) and in data set [2] (setting [4]) were 30.49 ± 0.93 µM and 24.19 ± 0.72 µM, respectively. In addition, the inhibition at 25 µM in data set [2] (setting [8]) came out at 4.24 ± 2.92%. Further, the inhibition at 50 µM in data set [2] (setting [9]) turned out to be 24 ± 2.27%.

Consider `Nc1ncnc2c1ncn2[C@@H]1O[C@H](CO)[C@@H](O)[C@H]1O` [Compound 25, Adenosine], for which, in data set [1], the viability at 24 h, 25 µM was found to be 81.6 ± 1.26% and the viability at 24 h, 50 µM is 80.5 ± 6.19%. The Nitrite in data set [2] (setting [3]) amounted to 27.43 ± 1.35 µM. Also, in data set [2] (setting [4]), the Nitrite was determined as 20.69 ± 1.74 µM. Further, the inhibition at 25 µM in data set [2] (setting [5]) was 13.9 ± 4.23%. Further, the inhibition at 50 µM in data set [2] (setting [6]) turned out to be 35.1 ± 5.47%.

The values above are taken from article PMC6222787, “Anti-Inflammatory Activities of Compounds Isolated from the Rhizome of Anemarrhena asphodeloides” (Molecules : A Journal of Synthetic Chemistry and Natural …, 2018).
